{"source": "patent US12661331B2", "about": "(priority 2019, dated 2026)", "test_system": "PUUV", "set-up": "species or system AG129 mice", "details": "mouse, in vivo", "data": [{"smiles": "O=C(O)c1ccc(F)c(F)c1Nc1ccc(I)cc1Cl", "note": "[ATR-002, 2-(2-chloro-4-iodophenylamino)-N-3,4-difluoro benzoic acid]", "values": [{"measurement": "virus in the kidney", "value": "no virus could be detected"}, {"measurement": "virus in the lung", "value": "no virus could be detected"}, {"measurement": "virus titer reduction compared to animals treated with solvent only", "setting": "75 mg/kg/day", "value": "complete virus titer reduction"}]}]}
